# Reference: ChEMBL document CHEMBL1142788, “Synthesis and antibacterial activity of alkyl derivatives of the glycopeptide antibiotic A40926 and their amides” (2005)
# How the values were obtained:
# [1] = tested on: Enterococcus faecium; test: Minimum inhibitory concentration against vancomycin-A Enterococcus faecium in the presence of 30% bovine serum (n=1) (range = 816 mg/L); format: functional
# [2] = tested on: Staphylococcus aureus; test: Minimum inhibitory concentration against methicillin-sensitive Staphylococcus aureus
# [3] = tested on: Enterococcus faecium; test: Minimum inhibitory concentration against vancomycin-sensitive Enterococcus faecium in the presence of 30% bovine serum(n=1); format: functional
# [4] = tested on: Enterococcus faecalis; test: Minimum inhibitory concentration against vancomycin-sensitive Enterococcus faecalis in the presence of 30% bovine serum (n=3); format: functional
# [5] = tested on: Staphylococcus epidermidis; test: Minimum inhibitory concentration against methicillin-sensitive Staphylococcus epidermidis in the presence of 30% bovine serum; format: functional
# [6] = tested on: Staphylococcus haemolyticus; test: Minimum inhibitory concentration against Staphylococcus haemolyticus in the presence of 30% bovine serum; format: functional
# [7] = tested on: Enterococcus faecalis; test: Minimum inhibitory concentration against vancomycin-A Enterococcus faecalis in the presence of 30% bovine serum (n=4) (Range = 0.125 - 16 mg/L); format: functional
# [8] = tested on: Enterococcus faecalis; test: Minimum inhibitory concentration against vancomycin-A Enterococcus faecalis (n=4) (range = 2-128mg/L)
# [9] = tested on: Enterococcus faecalis; test: Minimum inhibitory concentration against vancomycin-sensitive Enterococcus faecalis in the presence of 30% bovine serum (n=3) (range = 0.125-0.5); format: functional
# [10] = tested on: Staphylococcus epidermidis; test: Minimum inhibitory concentration against methicillin-resistant Staphylococcus epidermidis in the presence of 30% bovine serum; format: functional
# [11] = tested on: Enterococcus faecium; test: Minimum inhibitory concentration against vancomycin-A Enterococcus faecium in the presence of 30% bovine serum (n=1) (range = 0.125-128mg/l); format: functional
# [12] = tested on: Staphylococcus aureus; test: Minimum inhibitory concentration against methicillin-resistant Staphylococcus aureus
# [13] = tested on: Enterococcus faecalis; test: Minimum inhibitory concentration against vancomycin-sensitive Enterococcus faecalis in the presence of 30% bovine serum (n=3) (range = 0.5-1mg/l); format: functional
# [14] = tested on: Enterococcus faecalis; test: Minimum inhibitory concentration against vancomycin-A Enterococcus faecalis in the presence of 30% bovine serum (n=4); format: functional
# [15] = tested on: Enterococcus faecium; test: Minimum inhibitory concentration against vancomycin-A Enterococcus faecium in the presence of 30% bovine serum (n=1) (range = 2>128mg/l); format: functional
# [16] = tested on: Enterococcus faecium; test: Minimum inhibitory concentration against vancomycin-A Enterococcus faecium in the presence of 30% bovine serum (n=1); format: functional
# [17] = tested on: Enterococcus faecalis; test: Minimum inhibitory concentration against vancomycin-sensitive Enterococcus faecalis in the presence of 30% bovine serum(n=3)(range = 0.125 - 0.16 mg/l); format: functional
# [18] = tested on: Enterococcus faecalis; test: Minimum inhibitory concentration against vancomycin-sensitive Enterococcus faecalis in the presence of 30% bovine serum(n=3)(range = 0.25-1mg/l); format: functional
# [19] = tested on: Enterococcus faecalis; test: Minimum inhibitory concentration against vancomycin-A Enterococcus faecalis in the presence of 30% bovine serum (n=4) (range = 2-4 mg/L); format: functional
# [20] = tested on: Enterococcus faecium; test: Minimum inhibitory concentration against vancomycin-A Enterococcus faecium in the presence of 30% bovine serum (n=1) (range = 0.5>128mg/l); format: functional
# [21] = tested on: Enterococcus faecium; test: Minimum inhibitory concentration against vancomycin-A Enterococcus faecium in the presence of 30% bovine serum (n=1) (range = 1>128mg/l); format: functional
# [22] = tested on: Enterococcus faecalis; test: Minimum inhibitory concentration against vancomycin-A Enterococcus faecalis in the presence of 30% bovine serum(n=4) (range = 16>128mg/L); format: functional
# [23] = tested on: Enterococcus faecalis; test: Minimum inhibitory concentration against vancomycin-sensitive Enterococcus faecalis in the presence of 30% bovine serum(n=3)(range =0.125-0.25 mg/l); format: functional
# [24] = tested on: Enterococcus faecium; test: Minimum inhibitory concentration against vancomycin-A Enterococcus faecium in the presence of 30% bovine serum (n=1) (range = 2-64mg/L); format: functional
# [25] = tested on: Enterococcus faecium; test: Minimum inhibitory concentration against vancomycin-A Enterococcus faecium in the presence of 30% bovine serum (n=1) (range = 64>128mg/L); format: functional
# [26] = tested on: Enterococcus faecalis; test: Minimum inhibitory concentration against vancomycin-sensitive Enterococcus faecalis in the presence of 30% bovine serum(n=3)(range = 0.5-1mg/l); format: functional
# [27] = tested on: Enterococcus faecalis; test: Minimum inhibitory concentration against vancomycin-A Enterococcus faecalis in the presence of 30% bovine serum(n=4) (range = 0.5-8 mg/L); format: functional
# [28] = tested on: Enterococcus faecalis; test: Minimum inhibitory concentration against vancomycin-sensitive Enterococcus faecalis in the presence of 30% bovine serum(n=3); format: functional
# [29] = tested on: Enterococcus faecalis; test: Minimum inhibitory concentration against vancomycin-A Enterococcus faecalis in the presence of 30% bovine serum(n=4) (range = 0.5-8mg/L); format: functional
# [30] = tested on: Enterococcus faecium; test: Minimum inhibitory concentration against vancomycin-A Enterococcus faecium in the presence of 30% bovine serum (n=1) (range = 0.25-32mg/l); format: functional
Structure (SMILES),MIC [2] [µg/mL],MIC [3] [µg/mL],MIC [4] [µg/mL],MIC [5] [µg/mL],MIC [6] [µg/mL],MIC [10] [µg/mL],MIC [12] [µg/mL],further results
CCCCCCOc1ccc(CNC2[C@H](Oc3c4cc5cc3Oc3ccc(cc3Cl)[C@@H](O)C3NC(=O)[C@H](NC(=O)[C@@H]5NC(=O)[C@H]5NC(=O)[C@@H](Cc6ccc(cc6)O4)NC(=O)[C@H](NC)c4ccc(O)c(c4)Oc4cc(O)c(Cl)c5c4)c4ccc(O)c(c4)-c4c(O[C@H]5O[C@H](CO)[C@@H](O)[C@H](O)[C@@H]5O)cc(O)cc4[C@@H](C(=O)NCCCN(C)C)NC3=O)OC(C(=O)NCCCN(C)C)C(O)[C@@H]2O)cc1 (some centres not stated),> 0.125,< 0.125,< 0.125,< 0.125,16,–,–,MIC [1]: > 16 µg/mL; MIC [7]: 16 µg/mL
CCCCn1cc(CNC2[C@H](Oc3c4cc5cc3Oc3ccc(cc3Cl)[C@@H](O)C3NC(=O)[C@H](NC(=O)[C@@H]5NC(=O)[C@H]5NC(=O)[C@@H](Cc6ccc(cc6)O4)NC(=O)[C@H](N(C)Cc4cn(CCCC)c6ccccc46)c4ccc(O)c(c4)Oc4cc(O)c(Cl)c5c4)c4ccc(O)c(c4)-c4c(O[C@H]5O[C@H](CO)[C@@H](O)[C@H](O)[C@@H]5O)cc(O)cc4[C@@H](C(=O)NCCCN(C)C)NC3=O)OC(C(=O)NCCCN(C)C)C(O)[C@@H]2O)c2ccccc21 (some centres not stated),0.5,0.125,–,0.25,0.25,2,2,MIC [8]: 128 µg/mL; MIC [9]: < 0.5 µg/mL; MIC [11]: 128 µg/mL
CN(Cc1c[nH]c2ccccc12)[C@H]1C(=O)N[C@@H]2Cc3ccc(cc3)Oc3cc4cc(c3O[C@@H]3OC(C(=O)O)C(O)[C@H](O)C3NCc3c[nH]c5ccccc35)Oc3ccc(cc3Cl)[C@@H](O)C3NC(=O)[C@H](NC(=O)[C@@H]4NC(=O)[C@@H](NC2=O)c2cc(cc(O)c2Cl)Oc2cc1ccc2O)c1ccc(O)c(c1)-c1c(O[C@H]2O[C@H](CO)[C@@H](O)[C@H](O)[C@@H]2O)cc(O)cc1[C@@H](C(=O)O)NC3=O (some centres not stated),4,2,–,64,> 128,128,2,MIC [13]: 1 µg/mL; MIC [14]: 32 µg/mL; MIC [15]: > 128 µg/mL
CCCCCCOc1ccc(CNC2[C@H](Oc3c4cc5cc3Oc3ccc(cc3Cl)[C@@H](O)C3NC(=O)[C@H](NC(=O)[C@@H]5NC(=O)[C@H]5NC(=O)[C@@H](Cc6ccc(cc6)O4)NC(=O)[C@H](NC)c4ccc(O)c(c4)Oc4cc(O)c(Cl)c5c4)c4ccc(O)c(c4)-c4c(O[C@H]5O[C@H](CO)[C@@H](O)[C@H](O)[C@@H]5O)cc(O)cc4[C@@H](C(=O)NCCCN(C)C)NC3=O)OC(C(=O)NCCCN(C)C)C(O)[C@@H]2O)cc1OCC (some centres not stated),< 0.125,< 0.125,–,< 0.125,2,–,–,MIC [16]: > 16 µg/mL; MIC [17]: < 0.125 µg/mL; MIC [7]: < 16 µg/mL
CCCCc1ccc(CNC2[C@H](Oc3c4cc5cc3Oc3ccc(cc3Cl)[C@@H](O)C3NC(=O)[C@H](NC(=O)[C@@H]5NC(=O)[C@H]5NC(=O)[C@@H](Cc6ccc(cc6)O4)NC(=O)[C@H](N(C)Cc4ccc(CCCC)cc4)c4ccc(O)c(c4)Oc4cc(O)c(Cl)c5c4)c4ccc(O)c(c4)-c4c(O[C@H]5O[C@H](CO)[C@@H](O)[C@H](O)[C@@H]5O)cc(O)cc4[C@@H](C(=O)O)NC3=O)OC(C(=O)O)C(O)[C@@H]2O)cc1 (some centres not stated),–,1,–,4,8,8,2,MIC [18]: 1 µg/mL; MIC [19]: 4 µg/mL; MIC [20]: > 128 µg/mL
CCCCn1cc(CNC2[C@H](Oc3c4cc5cc3Oc3ccc(cc3Cl)[C@@H](O)C3NC(=O)[C@H](NC(=O)[C@@H]5NC(=O)[C@H]5NC(=O)[C@@H](Cc6ccc(cc6)O4)NC(=O)[C@H](N(C)Cc4cn(CCCC)c6ccccc46)c4ccc(O)c(c4)Oc4cc(O)c(Cl)c5c4)c4ccc(O)c(c4)-c4c(O[C@H]5O[C@H](CO)[C@@H](O)[C@H](O)[C@@H]5O)cc(O)cc4[C@@H](C(=O)O)NC3=O)OC(C(=O)O)C(O)[C@@H]2O)c2ccccc21 (some centres not stated),4,< 0.125,0.25,4,64,32,2,MIC [21]: > 128 µg/mL; MIC [22]: > 128 µg/mL
CCCCCCCCCCc1ccc(CNC2[C@H](Oc3c4cc5cc3Oc3ccc(cc3Cl)[C@@H](O)C3NC(=O)[C@H](NC(=O)[C@@H]5NC(=O)[C@H]5NC(=O)[C@@H](Cc6ccc(cc6)O4)NC(=O)[C@H](NC)c4ccc(O)c(c4)Oc4cc(O)c(Cl)c5c4)c4ccc(O)c(c4)-c4c(O[C@H]5O[C@H](CO)[C@@H](O)[C@H](O)[C@@H]5O)cc(O)cc4[C@@H](C(=O)O)NC3=O)OC(C(=O)O)C(O)[C@@H]2O)cc1 (some centres not stated),4,0.5,–,32,32,–,2,MIC [23]: 0.125 µg/mL; MIC [24]: > 64 µg/mL
CN(Cc1ccc2ccccc2c1)[C@H]1C(=O)N[C@@H]2Cc3ccc(cc3)Oc3cc4cc(c3O[C@@H]3OC(C(=O)O)C(O)[C@H](O)C3N)Oc3ccc(cc3Cl)[C@@H](O)C3NC(=O)[C@H](NC(=O)[C@@H]4NC(=O)[C@@H](NC2=O)c2cc(cc(O)c2Cl)Oc2cc1ccc2O)c1ccc(O)c(c1)-c1c(O[C@H]2O[C@H](CO)[C@@H](O)[C@H](O)[C@@H]2O)cc(O)cc1[C@@H](C(=O)O)NC3=O (some centres not stated),2,1,–,16,128,32,2,MIC [25]: > 128 µg/mL; MIC [26]: 1 µg/mL; MIC [14]: 128 µg/mL
CCCCCCCCOc1ccc(CNC2[C@H](Oc3c4cc5cc3Oc3ccc(cc3Cl)[C@@H](O)C3NC(=O)[C@H](NC(=O)[C@@H]5NC(=O)[C@H]5NC(=O)[C@@H](Cc6ccc(cc6)O4)NC(=O)[C@H](NC)c4ccc(O)c(c4)Oc4cc(O)c(Cl)c5c4)c4ccc(O)c(c4)-c4c(O[C@H]5O[C@H](CO)[C@@H](O)[C@H](O)[C@@H]5O)cc(O)cc4[C@@H](C(=O)NCCCN(C)C)NC3=O)OC(C(=O)NCCCN(C)C)C(O)[C@@H]2O)cc1 (some centres not stated),0.5,0.13,0.25,0.125,4,–,0.25,MIC [16]: 0.8 µg/mL; MIC [27]: 8 µg/mL
CN(C)CCCNC(=O)C1O[C@@H](Oc2c3cc4cc2Oc2ccc(cc2Cl)[C@@H](O)C2NC(=O)[C@H](NC(=O)[C@@H]4NC(=O)[C@H]4NC(=O)[C@@H](Cc5ccc(cc5)O3)NC(=O)[C@H](N(C)Cc3c[nH]c5ccccc35)c3ccc(O)c(c3)Oc3cc(O)c(Cl)c4c3)c3ccc(O)c(c3)-c3c(O[C@H]4O[C@H](CO)[C@@H](O)[C@H](O)[C@@H]4O)cc(O)cc3[C@@H](C(=O)NCCCN(C)C)NC2=O)C(NCc2c[nH]c3ccccc23)[C@@H](O)C1O (some centres not stated),2,0.25,–,1,2,2,1,MIC [28]: < 0.125 µg/mL; MIC [29]: 8 µg/mL; MIC [30]: 32 µg/mL
